Test results taken from ChEMBL document CHEMBL1201862, “PubChem BioAssay data set” (2004).
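1) Cells in 96-well plates. 2) Compound, 48 h, 5 concentrations. 3) Linear interpolation between surrounding doses. 4) Unreached endpoint = highest concentration. Abbreviation: GI50, concentration required for 50% inhibition of growth.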 Active and inactive are the calls of the source. Rule as the data show it: active = GI50 up to about 1.1 µM and inactive = higher.

Tests used:
Assay in all cases: NCI tumour cell line growth inhibition, 48 h
SR = test system: SR
A498 = test system: A498
K562 = test system: K562
CAKI-1 = test system: CAKI-1
SF-295 = test system: SF-295
SK-MEL-28 = test system: SK-MEL-28
HCT-15 = test system: HCT-15
MOLT-4 = test system: MOLT-4
NCI-H460 = test system: NCI-H460
UACC-257 = test system: UACC-257
OVCAR-8 = test system: OVCAR-8
SNB-19 = test system: SNB-19
TK-10 = test system: TK-10
CCRF-CEM = test system: CCRF-CEM
RPMI-8226 = test system: RPMI-8226

SMILES | GI50 (SR) | GI50 (A498) | GI50 (K562) | GI50 (CAKI-1) | GI50 (SF-295) | GI50 (SK-MEL-28) | GI50 (HCT-15) | GI50 (MOLT-4) | GI50 (NCI-H460) | GI50 (UACC-257) | GI50 (OVCAR-8) | GI50 (SNB-19) | GI50 (TK-10) | GI50 (CCRF-CEM) | GI50 (RPMI-8226)
Cc1cccc(NC(=O)CC2C(=O)Nc3ccccc3S2(=O)=O)c1C (stereo not drawn) | 11.1 µM (inactive) | 30.3 µM (inactive) | 9.18 µM (inactive) | 66.8 µM (inactive) | 58.1 µM (inactive) | 77.6 µM (inactive) | 40.6 µM | 47.9 µM (inactive) | 22.6 µM (inactive) | 26.9 µM (inactive) | 20.2 µM (inactive) | 32.1 µM (inactive) | 28.9 µM (inactive) |  | 
NCCCNCc1c2ccccc2c(CNCCCN)c2ccccc12 |  | 23.1 µM (inactive) | 13.6 µM (inactive) | 30.5 µM (inactive) | 22.3 µM (inactive) | > 10 µM (inactive) | 22 µM | 12 µM (inactive) | 16.4 µM (inactive) | 21.2 µM (inactive) | 14.6 µM (inactive) | 33.2 µM (inactive) | 32.5 µM (inactive) | 16.9 µM (inactive) | 
OCC(O)C(O)C(O)C(O)c1nnn[nH]1 (stereo not drawn) | > 100 µM (inactive) |  | > 100 µM (inactive) | > 100 µM (inactive) | > 100 µM (inactive) |  | > 100 µM | > 100 µM (inactive) | > 100 µM (inactive) |  | > 100 µM (inactive) |  |  | > 100 µM (inactive) | > 100 µM (inactive)
Cc1ccc(NC(=O)c2cc3cc(/N=N/c4ccccc4C(=O)O)ccc3oc2=O)cc1 |  |  | 39.2 µM (inactive) |  | 44.4 µM (inactive) | 37.5 µM (inactive) | 34.5 µM | 32.2 µM (inactive) | 49.3 µM (inactive) | 20.3 µM (inactive) | 58.7 µM (inactive) | 28.4 µM (inactive) | 58.9 µM (inactive) | 30.2 µM (inactive) | 18.6 µM (inactive)
O=C(CSc1nnc(-c2ccc(/N=C\c3ccc(Cl)cc3)cc2)o1)Nc1ccc(Cl)cc1Cl |  | > 100 µM (inactive) | 38 µM (inactive) | > 100 µM (inactive) | 27.2 µM (inactive) | 28 µM (inactive) | 23.3 µM | 24.3 µM (inactive) | > 100 µM (inactive) | 25 µM (inactive) | 28.5 µM (inactive) | 31 µM (inactive) | > 100 µM (inactive) | 29.3 µM (inactive) | 32.4 µM (inactive)
COc1cc2c(cc1OC)C(Cc1cc(Br)c(OC)c(OC)c1)=[N+](C)CC2 |  |  | 18.8 µM (inactive) | > 100 µM (inactive) | 30.5 µM (inactive) | > 100 µM (inactive) | > 100 µM |  | 58.1 µM (inactive) | 11.1 µM (inactive) | 27 µM (inactive) | 55.6 µM (inactive) | 59.6 µM (inactive) | 92.5 µM (inactive) | 43.2 µM (inactive)
CC(O)C(C(=O)O)N(CC1(O)OCC(O)C(O)C1O)N=O (stereo not drawn) |  | > 100 µM (inactive) | > 100 µM (inactive) |  |  | > 100 µM (inactive) |  | > 100 µM (inactive) | > 100 µM (inactive) | > 100 µM (inactive) | > 100 µM (inactive) |  | > 100 µM (inactive) | > 100 µM (inactive) | > 100 µM (inactive)
COc1cc(-c2nccc3cc(OC)c(OC)cc23)ccc1O | 30.3 µM (inactive) |  | 40.8 µM (inactive) | 21.3 µM (inactive) | 25.6 µM (inactive) | > 100 µM (inactive) | 27.9 µM | 29.2 µM (inactive) | 27.8 µM (inactive) | 69.2 µM (inactive) | 44.1 µM (inactive) | 68.1 µM (inactive) | 42 µM (inactive) | 38.5 µM (inactive) | 21.4 µM (inactive)
Brc1ccccc1C1SCc2nc3ccccc3n21 (stereo not drawn) | 12.6 µM (inactive) |  | 7.01 µM (inactive) | 20.7 µM (inactive) | 23.8 µM (inactive) | > 10 µM (inactive) | 9.84 µM | 18.5 µM (inactive) | 17.4 µM (inactive) |  | 23.6 µM (inactive) |  | 20 µM (inactive) | 21 µM (inactive) | 13.7 µM (inactive)
C#CCNC(=O)N(CC#C)N=O |  | > 100 µM (inactive) | 24.8 µM (inactive) | > 100 µM (inactive) | > 100 µM (inactive) | > 100 µM (inactive) | > 100 µM | 31 µM (inactive) | > 100 µM (inactive) | > 100 µM (inactive) | > 100 µM (inactive) | > 100 µM (inactive) | > 100 µM (inactive) | 37.9 µM (inactive) | 
COc1cc(Br)c(/C=N\c2cccc3ccc(OS(=O)(=O)c4ccc([N+](=O)[O-])cc4)cc23)cc1OC | > 100 µM (inactive) | > 100 µM (inactive) |  | 6.19 µM (inactive) | 5.06 µM (inactive) | 28.6 µM (inactive) | 10.5 µM | > 100 µM (inactive) | > 100 µM (inactive) | > 100 µM (inactive) | > 100 µM (inactive) | 63.4 µM (inactive) |  | > 100 µM (inactive) | > 100 µM (inactive)
Cn1c(=O)c(/N=N/c2c(=O)n(C)c(=O)n3c2[nH]c2ccccc23)c2[nH]c3ccccc3n2c1=O |  | 90.4 µM (inactive) | > 100 µM (inactive) | > 100 µM (inactive) | 12.4 µM (inactive) | > 100 µM (inactive) | 48.5 µM |  | 9.89 µM (inactive) | 54.2 µM (inactive) | 57.9 µM (inactive) | 13.2 µM (inactive) | 50.8 µM (inactive) | 8.63 µM (inactive) | > 100 µM (inactive)
COC(=O)C1=C(C[S+]([O-])c2ccc([N+](=O)[O-])cc2[N+](=O)[O-])ON(C)C1c1ccccc1 (stereo not drawn) |  | > 61.8 µM (inactive) | 12.1 µM (inactive) | 28 µM (inactive) | 46.8 µM (inactive) | 24.2 µM (inactive) | 37.8 µM | 17.4 µM (inactive) | > 90.4 µM (inactive) | 50.6 µM (inactive) | 63.7 µM (inactive) | 32.8 µM (inactive) | > 48.9 µM (inactive) | 9.06 µM (inactive) | 13.4 µM (inactive)
[O-][Cl+3]([O-])([O-])[O-].c1ccc(C[P+]2(c3ccccc3)CCCCC2)cc1 | 86.7 µM (inactive) | > 100 µM (inactive) | > 100 µM (inactive) |  | > 100 µM (inactive) | > 100 µM (inactive) | > 100 µM | > 100 µM (inactive) | > 100 µM (inactive) | 34.4 µM (inactive) | > 100 µM (inactive) | > 100 µM (inactive) | > 100 µM (inactive) | > 100 µM (inactive) | 34.7 µM (inactive)
CCN1C[C@]2(C)CC[C@H](O)C34C1C(C[C@@H]32)[C@@]1(O)CC[C@H]2C[C@@H]4[C@@H]1[C@H]2O | > 100 µM (inactive) |  |  | > 100 µM (inactive) | > 100 µM (inactive) | > 100 µM (inactive) | > 100 µM | > 100 µM (inactive) | > 100 µM (inactive) | > 100 µM (inactive) | > 100 µM (inactive) | > 100 µM (inactive) | > 100 µM (inactive) | > 100 µM (inactive) | > 100 µM (inactive)
Cc1ccc(S(=O)(=O)NC(=O)NCCc2ccccc2)cc1 |  | > 100 µM (inactive) | 83.4 µM (inactive) | > 100 µM (inactive) | > 100 µM (inactive) | > 100 µM (inactive) |  | > 100 µM (inactive) | > 100 µM (inactive) | 25.9 µM (inactive) | > 100 µM (inactive) | > 100 µM (inactive) | > 100 µM (inactive) | > 100 µM (inactive) | > 100 µM (inactive)
